Assay results: US20260217659A1, “COMPOUNDS, COMPOSITIONS AND USES THEREOF IN THE TREATMENT AND PREVENTION OF DISEASES AND CONDITIONS ASSOCIATE WITH OR AGGRAVATED BY IMPAIRED MITOPHAGY OR OXIDATIVE STRESS” (Yissum Research Development Company of The Hebrew …, priority 2023, published 2026)
pIC50: −log10 of the molar value.

Experiments:
Hep-3B cells [1] = experiment: Hep-3B cell survival; type: cell-based, human; settings: single agent, 72 h
Method: (§1) FIGS. 6A-6E show how ST-480 and CQ effectively kill Hep-3B cancer cells. Bar graphs displaying the effects of ST-480 (6A) and CQ (6B) and their combined effect 6C) on Hep-3B cells' survival after 72 h—the experimental setup was similar Asterisks represent a comparison to vehicle control (6A and 6B) or towards (the same CQ concentration under vehicle treatment conditions (5C). *p<0.05, **p<0.01, ***p<0.001, ****p<0.0001. N=3 biological repeats. (5D) Representative images show the state of Hep-3B cells treated as described in (6C). Scale bar: 200 μm. (5E) BEAS-2B cells are not sensitive to ST-480, ns-non-significance. N-3. Error bars represent SEM.
(§2) To strengthen these conclusions, the impact of ST-480 and CQ was tested on another liver cancer cell line, namely Hep-3B′ the Hep-3B cell line originated from a person with primary hepatocellular carcinoma (HCC). […] In addition, the combined effect of ST-480 and CQ on Hep-3B survival was tested. […] In this respect, it should be emphasized that ST-480 was not toxic to non-cancer cells.

Huh-7 cells = experiment: Huh-7 cell survival, MTT assay; type: cell-based, human; settings: 72 h
Method: Huh-7 cells (2000 per well, in 96-wells plate) were treated with 100 μM of each compound. Cell viability was measured by MTT assay after 72 h. Asterisks represent a comparison to vehicle control. ****p<0.0001. N=3 biological repeats. Error bars represent SEM.
(§3) FIGS. 5A-5D show how ST-480 and CQ kill Huh-7 cells in a dose-dependent manner. (5A) Surviving curves in 200 mM paraquat (PQ). Worms were treated with ST-480 at the indicated concentrations or with the vehicle as a control for 48 h. Afterward, they were treated with 200 mM PQ, and their survival was measured after 3 and 6 h. N=6 biological repeats, P values are indicated (compared with the vehicle control). Bar graphs displaying the survival of Huh-7 cells in different doses of CQ (4B) and ST-480 (5C) —the experimental setup was similar to that described in FIG. 1. Asterisks represent a comparison to vehicle control. N=3 biological repeats. (5D) Bar graph showing the combined effect of ST-480 and CQ on Huh-7 cells' survival after 72 h. *p<0.05, ***p<0.001, ****p<0.0001. N=3 biological repeats. *Error bars represent SEM.
ST-480, is one of the diamine compounds of the invention that inhibits liver cancer cell viability. […] Therefore, the activity of the polyamine compound of the invention in liver cancer therapy. To explore this, the inventors screened the effect of eight new compounds. In addition, the effect of two compounds in the context of lifespan, health-span, and proteotoxicity, i.e., the diamines VL-004 and VL-850 were examined, and the natural polyamine spermidine (Spd). Huh-7 cells (derived from hepatocellular carcinoma of a person) were exposed to 100 μM of each compound and examined their survival after 72 h using an MTT assay.
Chloroquine (CQ) has been used safely to treat malaria and to suppress autophagic flux. Moreover, as indicated above, it induces DNA damage and apoptosis in cancer cells. The effect of different CQ concentrations on Huh-7 cells' survival after 72 h were tested. In parallel, dose-response experiments testing ST-480 toxicity in these cells were performed.

BEAS-2B cells = experiment: BEAS-2B non-cancer cell survival; type: cell-based; settings: 70 µM and 100 μM, 72 h
Method: as §1, §2

C. elegans = experiment: Survival of worms in 200 mM paraquat (oxidative stress resistance); type: in vivo; settings: 48 h treatment, then 200 mM paraquat, survival after 3 and 6 h
Method: as §3
Chloroquine (CQ) enhances ST-480 cytotoxicity.

Hep-3B cells [2] = experiment: Mitophagy: colocalization of mitochondria and lysosomes in Hep-3B cells; type: cell-based, human; settings: 100 μM, 6 h
Method: FIGS. 7A-7B show how ST-480 induces mitophagy. (7A) Colocalization of mitochondria and lysosome. Arrowheads indicate representative colocalization. The inset represents an eight-fold enlargement-scale bar: 50 μm. (7B) Colocalization quantification. N=3, ≥412 cells per treatment. *p<0.05, Error bars represent SEM.
ST-480 induces mitophagy in Hep-3B cells. To explore whether ST-480 induces mitophagy, Hep-3B cells were exposed to 100 μM ST-480 or vehicle control for 6 h. To measure mitophagy, the colocalization of mitochondria and lysosomes were quantified using specific mitochondrial and lysosomal dyes. In addition, nuclei were stained using a DNA dye—For this, the Cytopainter ab139487 kit, was used.

U87 MG cells = experiment: XTT proliferation inhibition, U87 MG; type: cell-based; settings: Homo sapiens, U-87 MG, glioma (GBM), 72 h
Method: (§4) Cell lines: PANC-1. Organism: Homo sapiens, human/Tissue: Pancreas; Duct/Disease: Epithelioid Carcinoma HUH7. Organism: Homo sapiens, human/Tissue: Liver/Disease: Carcinoma; Hepatocellular NCI-H69. Organism: Homo sapiens, human/Tissue: Lung/Disease: NSCL U87 MG. Organism: Homo sapiens, human/Tissue: Brain/Disease: Glioma
(§5) PANC-1, HUH7, NCI-H69 and U87 MG cells are plated in one 96 well plate each, in their culture medium, at 7500 cells/well. Cells are allowed to attach for 16-24 hours at 37° C., 5% CO2. Thereafter, culture medium is discarded, and fresh culture medium is added to the cells, supplemented with elevating ST-1944 concentrations: 0.4, 2, 10 and 50 μM, 3 wells of each concentration (triplicates). The cells are incubated another 72±2 hours at 37° C., 5% CO2. At the end of incubation period, medium is discarded and 100 μL fresh culture medium is added to the cells along with 50 μL XTT reagent. The OD is measured in a plate reader once Vehicle treated cells are reach the range of 0.5-1.5 OD at 450 nm wavelength.
(§6) PANC-1 and HUH7culture medium: DMEM Medium (4.5 g/L glucose), supplemented with 10% FBS (heat inactivated), 2 mM L-Glutamine, and 1% of Pen/Strep Solution. U87 MG and NCI-H69 culture medium: EMEM Medium, supplemented with 10% FBS (heat inactivated), 2 mM L-Glutamine, and 1% of Pen/Strep Solution. […]

PANC-1 cells = experiment: XTT proliferation inhibition, PANC-1; type: cell-based; settings: Homo sapiens, Panc-1, pancreatic cancer, 72 h
Method: as §4, §5, §6

NCI-H69 cells = experiment: XTT proliferation inhibition, NCI-H69; type: cell-based; settings: Homo sapiens, NCI-H69, lung cancer (NSCLC), 72 h
Method: as §4, §5, §6

HUH7 cells = experiment: XTT proliferation inhibition, HUH7; type: cell-based; settings: Homo sapiens, Huh-7, HUH7, liver cancer (HCC), 72 h
Method: as §4, §5, §6

SMILES | Hep-3B cells' survival (Hep-3B cells [1]) | Huh-7 cell survival (Huh-7 cells; 100 μM, MTT assay) | Huh-7 cells' survival, dose response (Huh-7 cells; ST-480 at 60, 80, and 100 μM) | cell death of non-cancer BEAS-2B cells (BEAS-2B cells) | resistance to oxidative stress (C. elegans) | mitophagy (colocalization of mitochondria and lysosomes) (Hep-3B cells [2]) | Huh-7 cells' survival, dose response (Huh-7 cells; CQ at 7, 8, and 10 μM) | pIC50 (U87 MG cells) | pIC50 (PANC-1 cells) | pIC50 (NCI-H69 cells) | pIC50 (HUH7 cells)
NCCCCc1ccccc1CCCCN [ST-480] | sensitive to both ST-480 and CQ in a dose-dependent manner | significantly decreased Huh-7 cell survival | significantly decreased cells' survival | did not observe a significant cell death | confer resistance to oxidative stress | induces mitophagy in a significant manner | – | – | – | – | –
CCN(CC)CCCC(C)Nc1ccnc2cc(Cl)ccc12 (stereo not drawn) [CQ, chloroquine, reference compound] | sensitive to both ST-480 and CQ in a dose-dependent manner | – | – | – | – | – | significantly decreased cells' survival | – | – | – | –
Cn1ccnc1SCCCCc1ccccc1CCCCSc1nccn1C [ST-1944] | – | – | – | – | – | – | – | 5.00 | 6.00 | 5.00 | 5.70
